Data reported in ChEMBL document CHEMBL3714766, “Tetrahydroisoquinoline compounds and their use as pyruvate dehydrogenase kinase inhibitors” (2015).

Columns and labels:
[1] = biological target: T1, Pyruvate dehydrogenase kinase (Homo sapiens, UniProt Q15119+Q15120+Q16654+Q15118); assay: Inhibition of pyruvate dehydrogenase kinase in human PC3 cells incubated for 90 mins by phospho(Ser293)E1alpha MSP ELISA method; format: cell-based; conditions: pc-3
[2] = biological target: T1, Pyruvate dehydrogenase kinase; assay: Binding affinity to pyruvate dehydrogenase kinase (unknown origin) by VER-00160364 probe based fluorescence polarization assay
[3] = biological target: T1, Pyruvate dehydrogenase kinase; assay: Inhibition of pyruvate dehydrogenase kinase (unknown origin) assessed as reduction in E1 phosphorylation incubated for 1 hr by DELFIA method; format: protein assay

IC50 [1] [nM]	IC50 [2] [nM]	IC50 [3] [nM]	Compound
1000	100		COc1cnc(Cl)nc1-c1ccc2c(c1)CC[C@H](C)N2C(=O)c1ccc(O)cc1O
		10	Cc1cc(S(=O)(=O)NCc2ccccc2)cnc1-c1ccc2c(c1)CCC(c1cccnc1)N2C(=O)c1ccc(O)cc1O (stereo not given)
1000	1000		C[C@H]1CCc2cc(-c3nc(Cl)nc4c3ccn4C)ccc2N1C(=O)c1ccc(O)cc1O
	10		Cc1cnc(C)c(-c2ccc3c(c2)CCC(c2cccnc2)N3C(=O)c2ccc(O)cc2O)n1 (stereo not given)
	1000		COc1cnc(Cl)nc1-c1ccc2c(c1)CCC(c1cccnc1)N2C(=O)c1ccc(O)cc1O (stereo not given)
	100		COCCN(C)S(=O)(=O)c1cnc(-c2ccc3c(c2)CC[C@H](C)N3C(=O)c2ccc(O)cc2O)c(C)c1
1000	100		C[C@H]1CCc2cc(-c3ncnc4ccsc34)ccc2N1C(=O)c1ccc(O)cc1O
	100		CC1CCc2cc(F)ccc2N1C(=O)c1ccc(O)cc1O (stereo not given)
	10		Cc1cnc(Cl)nc1-c1ccc2c(c1)CC[C@H](C)C2C(=O)c1ccc(O)cc1O (stereo not given in full)
	10		Cc1cc(S(=O)(=O)NCc2cccnc2)cnc1-c1ccc2c(c1)CC[C@H](C)N2C(=O)c1ccc(O)cc1O
	1000		CC1CCc2cc(Br)ccc2N1C(=O)c1ccc(O)cc1O (stereo not given)
	100		Nc1ccc2c(c1)CCCN2C(=O)c1ccc(O)cc1O
	10		Cc1cc(S(=O)(=O)N2CCOCC2)cnc1-c1ccc2c(c1)CC[C@H](C)N2C(=O)c1ccc(O)cc1O
		10	Cc1cc(S(=O)(=O)N2CCC(F)(F)CC2)cnc1-c1ccc2c(c1)CCC(c1cccnc1)N2C(=O)c1ccc(O)cc1O (stereo not given)
	10		Cc1cc(S(=O)(=O)NCCCC(N)=O)cnc1-c1ccc2c(c1)CC[C@H](C)N2C(=O)c1ccc(O)cc1O
	10000		C[C@@H]1CCc2cc(F)ccc2N1C(=O)c1cc(Cl)c(O)cc1O
	10		Cc1cc(S(=O)(=O)N2CC(F)(F)C2)cnc1-c1ccc2c(c1)CC[C@H](C)N2C(=O)c1ccc(O)cc1O
	10		CC(=O)NCCNS(=O)(=O)c1cnc(-c2ccc3c(c2)CC[C@H](C)N3C(=O)c2ccc(O)cc2O)c(C)c1
	100		C[C@H]1CCc2cc(F)ccc2N1C(=O)c1ccc(O)cc1O
1000	1000		C[C@H]1CCc2cc(-c3nc(Cl)nc4[nH]ccc34)ccc2N1C(=O)c1ccc(O)cc1O
	10		Cc1cc(S(=O)(=O)N2CCOCC2)cnc1-c1ccc2c(c1)CCC(c1cccnc1)N2C(=O)c1ccc(O)cc1O (stereo not given)

IC50 [1] [nM]	IC50 [2] [nM]	IC50 [3] [nM]	Compound
	10		Cc1cc(S(=O)(=O)NCc2ccccn2)cnc1-c1ccc2c(c1)CC[C@H](C)N2C(=O)c1ccc(O)cc1O
	100		O=C(c1ccc(O)cc1O)N1c2ccccc2CCC1CNC(=O)C(F)(F)F (stereo not given)
	1000		COC(=O)c1ccc2c(c1)CCCN2C(=O)c1ccc(O)cc1O
	100		C[C@H]1CCc2cc(F)ccc2N1C(=O)c1cc(Cl)c(O)cc1O
1000	100		C[C@H]1CCc2cc(C(=O)N(C)Cc3cccc4ccccc34)ccc2N1C(=O)c1ccc(O)cc1O
	1000		O=C(c1ccc(O)cc1O)N1c2ccccc2CCC1c1ccco1 (stereo not given)
	100		O=C(c1ccc(O)cc1O)N1c2ccccc2CCC1c1cccnc1 (stereo not given)
1000	100		Cc1nc(C(F)(F)F)nc(-c2ccc3c(c2)CC[C@H](C)N3C(=O)c2ccc(O)cc2O)c1C
	100		CC1CCc2cc(F)ccc2N1C(=O)c1cc(Cl)c(O)cc1O (stereo not given)
1000	10		Cc1cc(N)cnc1-c1ccc2c(c1)CC[C@H](C)N2C(=O)c1ccc(O)cc1O
1000	100		CCNc1ccc(-c2ccc3c(c2)CC[C@H](C)N3C(=O)c2ccc(O)cc2O)c(C)n1
1000	100		Cc1cc2ccccc2nc1-c1ccc2c(c1)CC[C@H](C)N2C(=O)c1ccc(O)cc1O
	10		Cc1cc(S(=O)(=O)N2CCN(C)CC2)cnc1-c1ccc2c(c1)CC[C@H](C)N2C(=O)c1ccc(O)cc1O
1000	10		Cc1cc(S(=O)(=O)NCc2ccncc2)cnc1-c1ccc2c(c1)CC[C@H](C)N2C(=O)c1ccc(O)cc1O
1000	100		C[C@H]1CCc2cc(-c3ccnc4ccccc34)ccc2N1C(=O)c1ccc(O)cc1O
		10	O=C(c1ccc(O)cc1O)N1c2ccc(-c3ncnc4cccc(F)c34)cc2CCC1c1cccnc1 (stereo not given)
1000	10		Cc1cnc(Cl)nc1-c1ccc2c(c1)CC[C@H](C)N2C(=O)c1cc(F)c(O)cc1O
	1000		O=C(c1ccc(O)cc1O)N1c2ccccc2CCC1c1cccs1 (stereo not given)
	1000		CC(C)C(=O)Nc1ccc2c(c1)CCCN2C(=O)c1ccc(O)cc1O
	1000		Cc1n[nH]c(C)c1C1CCc2ccccc2N1C(=O)c1ccc(O)cc1O (stereo not given)
1000	10		C[C@H]1CCc2cc(C(=O)N(C)Cc3cccc4cnccc34)ccc2N1C(=O)c1ccc(O)cc1O

IC50 [1] [nM]	IC50 [2] [nM]	IC50 [3] [nM]	Compound
		10	Cc1cc(S(=O)(=O)N2CC(F)(F)C2)cnc1-c1ccc2c(c1)CCC(c1cccnc1)N2C(=O)c1ccc(O)cc1O (stereo not given)
1000	10		Cc1cc(S(=O)(=O)NCc2cccs2)cnc1-c1ccc2c(c1)CC[C@H](C)N2C(=O)c1ccc(O)cc1O
1000	100		O=C(c1ccc(O)cc1O)N1c2ccc(-c3nc(Cl)nc4[nH]ccc34)cc2CCC1c1cccnc1 (stereo not given)
1000	1000		C[C@H]1CCc2cc(-c3nc(Cl)nc4ccsc34)ccc2N1C(=O)c1ccc(O)cc1O
	100		CS(=O)(=O)NCC1CCc2ccccc2N1C(=O)c1ccc(O)cc1O (stereo not given)
1000	100		Cc1cnc(Cl)nc1-c1ccc2c(c1)CCC(C)N2C(=O)c1cc(Cl)c(O)cc1O (stereo not given)
		100	O=C(c1cc(Cl)c(O)cc1O)N1c2ccccc2CC[C@@H]1c1cccnc1
	10000		O=C(O)c1ccc2c(c1)CCCN2C(=O)c1ccc(O)cc1O
10000	10		C[C@H]1CCc2cc(C(=O)N(C)Cc3cccs3)ccc2N1C(=O)c1ccc(O)cc1O
	10		Cc1cncnc1-c1ccc2c(c1)CCC(c1cccnc1)N2C(=O)c1ccc(O)cc1O (stereo not given)
	10		O=C(c1ccc(O)cc1O)N1c2ccc(-c3ncnc4[nH]ccc34)cc2CCC1c1cccnc1 (stereo not given)
	10		CC(=O)N1CCN(S(=O)(=O)c2cnc(-c3ccc4c(c3)CC[C@H](C)N4C(=O)c3ccc(O)cc3O)c(C)c2)CC1
1000	100		Cc1csc2ncnc(-c3ccc4c(c3)CC[C@H](C)N4C(=O)c3ccc(O)cc3O)c12
	10		Cc1cnc(Cl)nc1-c1ccc2c(c1)CCC(c1cccnc1)N2C(=O)c1ccc(O)cc1O (stereo not given)
	100		O=C(c1ccc(O)cc1O)N1c2ccc(-c3nc4ccc(Cl)cc4cc3CO)cc2CCC1c1cccnc1 (stereo not given)
10000	100		Cc1sc2ncnc(-c3ccc4c(c3)CC[C@H](C)N4C(=O)c3ccc(O)cc3O)c2c1C
	1000		C[C@@H]1CCc2cc(F)ccc2N1C(=O)c1ccc(O)cc1O
1000	1000		CSc1nc(-c2ccc3c(c2)CC[C@H](C)N3C(=O)c2ccc(O)cc2O)c2cc[nH]c2n1
1000	100		COc1ccc(CN(C)C(=O)c2ccc3c(c2)CC[C@H](C)N3C(=O)c2ccc(O)cc2O)cc1
	100		C[C@H]1CCc2cc(C(=O)N(C)Cc3cccnc3)ccc2N1C(=O)c1ccc(O)cc1O
	100		CC1CCc2cc(C(=O)N(C)CC(F)(F)F)ccc2N1C(=O)c1ccc(O)cc1O (stereo not given)

IC50 [1] [nM]	IC50 [2] [nM]	IC50 [3] [nM]	Compound
1000	10		C[C@H]1CCc2cc(C(=O)N(C)Cc3ccc4nccnc4c3)ccc2N1C(=O)c1ccc(O)cc1O
	100		Cc1cc(S(=O)(=O)N2CCC(F)(F)CC2)cnc1-c1ccc2c(c1)CC[C@H](C)N2C(=O)c1ccc(O)cc1O
	100		C[C@H]1CCc2ccccc2N1C(=O)c1ccc(O)cc1O
		100	O=C(c1ccc(O)cc1O)N1c2ccccc2CCC1C(F)(F)F (stereo not given)
	1000		O=C(c1ccc(O)cc1O)N1c2ccccc2CCC1c1ccccn1 (stereo not given)
10000	100		COCCNS(=O)(=O)c1cnc(-c2ccc3c(c2)CC[C@H](C)N3C(=O)c2ccc(O)cc2O)c(C)c1
	100		CCN(CC)S(=O)(=O)c1ccc2c(c1)CCC(C)N2C(=O)c1ccc(O)cc1O (stereo not given)
1000	100		Cc1cc(S(=O)(=O)NCC2CC2)cnc1-c1ccc2c(c1)CC[C@H](C)N2C(=O)c1ccc(O)cc1O
	100		O=C(c1ccc(O)cc1O)N1c2ccccc2CCC1c1ccn[nH]1 (stereo not given)
	100		O=C(c1ccc(O)cc1O)N1c2ccccc2CC[C@@H]1c1cccnc1
	1000		O=C(c1ccc2c(c1)CCCN2C(=O)c1ccc(O)cc1O)N1Cc2ccccc2C1
	10		CCc1nccnc1-c1ccc2c(c1)CCC(c1cccnc1)N2C(=O)c1ccc(O)cc1O (stereo not given)
1000	100		COCCOc1ncc(C)c(-c2ccc3c(c2)CC[C@H](C)N3C(=O)c2ccc(O)cc2O)n1
	100		CC1CCc2ccccc2N1C(=O)c1ccc(O)cc1O (stereo not given)
1000	100		C[C@H]1CCc2cc(C(=O)N(C)Cc3ccc4ccccc4n3)ccc2N1C(=O)c1ccc(O)cc1O
1000	10		C[C@H]1CCc2cc(-c3ncnc4cccc(F)c34)ccc2N1C(=O)c1ccc(O)cc1O
	100		Cc1cccnc1-c1ccc2c(c1)CCC(CNS(C)(=O)=O)N2C(=O)c1ccc(O)cc1O (stereo not given)
	10		Cc1cc2ccc(F)cc2nc1-c1ccc2c(c1)CCC(c1cccnc1)N2C(=O)c1ccc(O)cc1O (stereo not given)
	10		Cc1cccnc1-c1ccc2c(c1)CCC(c1cccnc1)N2C(=O)c1ccc(O)cc1O (stereo not given)
